Measurements as given in US20210017295A1, “BISPECIFIC BINDING AGENTS AND USES THEREOF” (MEMORIAL SLOAN KETTERING CANCER CENTER, priority 2018, published 2021).
Where two headings read alike, the source gives them in different places.

System: s.c. HER2(+) BT-474 tumors
Type: in vivo, mouse
[1] = PRIT, CA 28% w/w 70 μg, 24 h p.i., mean ± SD
[2] = no PRIT, only ~16.8 MBq (90 pmol), 24 h p.i., mean ± SEM
[3] = optimized PRIT, 1.0 h p.i., mean ± SEM
[4] = optimized PRIT, 24 h p.i., mean ± SEM
[5] = optimized PRIT, 96 h p.i., mean ± SEM
[6] = optimized PRIT, 336 h p.i., mean ± SEM
[7] = optimized PRIT, […] p.i., mean ± SEM

## Nc1ccc(CC2CN(CC(=O)[O-])CCN(CC(=O)[O-])CCN(CC(=O)[O-])CCN2CC(=O)[O-])cc1.[177Lu+3] (centres unmarked) [^177Lu-DOTA-Bn]
[1]
  ^177Lu activity in Kidneys: 0.75 ± 0.08 % IA/g
  ^177Lu activity in Large Int.: 0.19 ± 0.04 % IA/g
  ^177Lu activity in Liver: 0.33 ± 0.02 % IA/g
  ^177Lu activity in Lungs: 0.25 ± 0.05 % IA/g
  ^177Lu activity in Muscle: 0.08 ± 0.02 % IA/g
  ^177Lu activity in Small Int.: 0.07 ± 0.01 % IA/g
  ^177Lu activity in Spleen: 0.73 ± 0.18 % IA/g
  ^177Lu activity in Stomach: 0.05 ± 0.02 % IA/g
  ^177Lu activity in Tumor: 6.98 ± 3.15 % IA/g
[2]
  ^177Lu activity in Blood: 0.002±0.00 % IA/g
  ^177Lu activity in Kidneys: 0.38±0.01 % IA/g
  ^177Lu activity in Liver: 0.04 ± 0.01 % IA/g
  ^177Lu activity in Spleen: 0.02 ± 0.00 % IA/g
  ^177Lu activity in Tumor: 0.07±0.01 % IA/g
Optimized PRIT, 1-24 h p.i.
  ^177Lu activity in tumor, range: 5-8 % IA/g
[3]
  Tumor-to-tissue ratio, Blood: 10.7 ± 1.3
  Tumor-to-tissue ratio, Bone: 37.3 ± 6.0
  Tumor-to-tissue ratio, Heart: 38.7 ± 6.7
  Tumor-to-tissue ratio, Kidneys: 5.7 ± 0.5
  Tumor-to-tissue ratio, Large Int.: 3.0 ± 0.5
  Tumor-to-tissue ratio, Liver: 8.7 ± 0.9
  Tumor-to-tissue ratio, Lungs: 16.6 ± 2.3
  Tumor-to-tissue ratio, Muscle: 35.7 ± 3.6
  Tumor-to-tissue ratio, Small Int.: 6.0 ± 1.5
  Tumor-to-tissue ratio, Spleen: 44.9 ± 6.3
  Tumor-to-tissue ratio, Stomach: 17.8 ± 4.6
  ^177Lu activity in Blood: 0.62 ± 0.06 % IA/g
  ^177Lu activity in Bone: 0.18 ± 0.03 % IA/g
  ^177Lu activity in Heart: 0.17 ± 0.03 % IA/g
  ^177Lu activity in Kidneys: 1.17 ± 0.02 % IA/g
  ^177Lu activity in Large Int.: 2.22 ± 0.37 % IA/g
  ^177Lu activity in Liver: 0.76 ± 0.06 % IA/g
  ^177Lu activity in Lungs: 0.40 ± 0.05 % IA/g
  ^177Lu activity in Muscle: 0.19 ± 0.01 % IA/g
  ^177Lu activity in Small Int.: 1.11 ± 0.27 % IA/g
  ^177Lu activity in Spleen: 0.15 ± 0.02 % IA/g
  ^177Lu activity in Stomach: 0.37 ± 0.09 % IA/g
  ^177Lu activity in Tumor: 6.65 ± 0.46 % IA/g
[4]
  Tumor-to-tissue ratio, Blood: 26.7±9.0
  Tumor-to-tissue ratio, Bone: 189.6 ± 46.7
  Tumor-to-tissue ratio, Heart: 105.3 ± 27.7
  Tumor-to-tissue ratio, Kidneys: 10.4±1.3
  Tumor-to-tissue ratio, Large Int.: 41.7 ± 5.4
  Tumor-to-tissue ratio, Liver: 28.3 ± 8.3
  Tumor-to-tissue ratio, Lungs: 38.7 ± 10.0
  Tumor-to-tissue ratio, Muscle: 118.5 ± 26.8
  Tumor-to-tissue ratio, Small Int.: 140.4 ± 22.8
  Tumor-to-tissue ratio, Spleen: 12.6 ± 4.5
  Tumor-to-tissue ratio, Stomach: 122.3 ± 17.1
[5]
  Tumor-to-tissue ratio, Blood: 63.6 ± 12.2
  Tumor-to-tissue ratio, Bone: 6.0 ± 1.7
  Tumor-to-tissue ratio, Heart: 42.4 ± 10.3
  Tumor-to-tissue ratio, Kidneys: 8.4 ± 1.7
  Tumor-to-tissue ratio, Large Int.: 31.8 ± 8.6
  Tumor-to-tissue ratio, Liver: 10.1 ± 2.6
  Tumor-to-tissue ratio, Lungs: 34.7 ± 8.8
  Tumor-to-tissue ratio, Muscle: 22.5 ± 8.7
  Tumor-to-tissue ratio, Small Int.: 44.0 ± 12.6
  Tumor-to-tissue ratio, Spleen: 12.9 ± 2.9
  Tumor-to-tissue ratio, Stomach: 57.3 ± 13.7
  ^177Lu activity in Blood: 0.04 ± 0.00 % IA/g
  ^177Lu activity in Bone: 0.38 ± 0.09 % IA/g
  ^177Lu activity in Heart: 0.05 ± 0.01 % IA/g
  ^177Lu activity in Kidneys: 0.27 ± 0.03 % IA/g
  ^177Lu activity in Large Int.: 0.07 ± 0.01 % IA/g
  ^177Lu activity in Liver: 0.23 ± 0.04 % IA/g
  ^177Lu activity in Lungs: 0.07 ± 0.01 % IA/g
  ^177Lu activity in Muscle: 0.10 ± 0.03 % IA/g
  ^177Lu activity in Small Int.: 0.05 ± 0.01 % IA/g
  ^177Lu activity in Spleen: 0.18 ± 0.02 % IA/g
  ^177Lu activity in Stomach: 0.04 ± 0.01 % IA/g
  ^177Lu activity in Tumor: 2.29±0.41 % IA/g
[6]
  Tumor-to-tissue ratio, Blood: 160.8 ± 30.3
  Tumor-to-tissue ratio, Bone: 10.0 ± 3.6
  Tumor-to-tissue ratio, Heart: 37.8 ± 7.7
  Tumor-to-tissue ratio, Kidneys: 3.8 ± 0.9
  Tumor-to-tissue ratio, Large Int.: 75.6 ± 26.4
  Tumor-to-tissue ratio, Liver: 3.7 ± 1.0
  Tumor-to-tissue ratio, Lungs: 29.2 ± 8.2
  Tumor-to-tissue ratio, Muscle: 64.3 ± 18.4
  Tumor-to-tissue ratio, Small Int.: 116.9 ± 30.0
  Tumor-to-tissue ratio, Spleen: 3.5 ± 0.9
  Tumor-to-tissue ratio, Stomach: 51.4 ± 12.4
  ^177Lu activity in Blood: 0.002 ± 0.00 % IA/g
  ^177Lu activity in Bone: 0.03 ± 0.01 % IA/g
  ^177Lu activity in Heart: 0.01 ± 0.00 % IA/g
  ^177Lu activity in Kidneys: 0.08 ± 0.01 % IA/g
  ^177Lu activity in Large Int.: 0.004 ± 0.00 % IA/g
  ^177Lu activity in Liver: 0.09 ± 0.02 % IA/g
  ^177Lu activity in Lungs: 0.01 ± 0.00 % IA/g
  ^177Lu activity in Muscle: 0.01 ± 0.00 % IA/g
  ^177Lu activity in Small Int.: 0.003 ± 0.00 % IA/g
  ^177Lu activity in Spleen: 0.09 ± 0.02 % IA/g
  ^177Lu activity in Stomach: 0.01 ± 0.00 % IA/g
  ^177Lu activity in Tumor: 0.32±0.06 % IA/g
Optimized PRIT, R^2=0.894
  approximate tumor clearance half-life: ~38.6 h
[7]
  Tumor-to-tissue ratio, Blood: 12.1 ± 1.5
  Tumor-to-tissue ratio, Bone: 37.5 ± 4.3
  Tumor-to-tissue ratio, Heart: 37.5 ± 5.2
  Tumor-to-tissue ratio, Kidneys: 5.2 ± 0.5
  Tumor-to-tissue ratio, Large Int.: 1.6 ± 0.3
  Tumor-to-tissue ratio, Liver: 12.6 ± 1.6
  Tumor-to-tissue ratio, Lungs: 13.5 ± 1.6
  Tumor-to-tissue ratio, Muscle: 25.8 ± 5.1
  Tumor-to-tissue ratio, Small Int.: 10.6 ± 3.7
  Tumor-to-tissue ratio, Spleen: 14.9 ± 1.8
  Tumor-to-tissue ratio, Stomach: 23.6 ± 7.7
  ^177Lu activity in Blood: 0.41 ± 0.04 % IA/g
  ^177Lu activity in Bone: 0.13 ± 0.01 % IA/g
  ^177Lu activity in Heart: 0.13 ± 0.02 % IA/g
  ^177Lu activity in Kidneys: 0.95 ± 0.05 % IA/g
  ^177Lu activity in Large Int.: 3.18 ± 0.52 % IA/g
  ^177Lu activity in Liver: 0.39 ± 0.04 % IA/g
  ^177Lu activity in Lungs: 0.37 ± 0.03 % IA/g
  ^177Lu activity in Muscle: 0.19 ± 0.04 % IA/g
  ^177Lu activity in Small Int.: 0.47 ± 0.16 % IA/g
  ^177Lu activity in Spleen: 0.33 ± 0.03 % IA/g
  ^177Lu activity in Stomach: 0.21 ± 0.07 % IA/g
  ^177Lu activity in Tumor: 4.95 ± 0.34 % IA/g
